Laboratory results as given in patent US20230091047A1 (priority 2019, published 2023).

How the values were obtained:
[1] = test system: HBV (HepG2.117 cell line, inducibly HBV producing); experiment: Anti-HBV activity: intracellular HBV DNA by real-time PCR in HepG2.117 cells after 3 days of treatment; format: cell-based, hepatitis B virus; conditions: Hepatitis B virus, HepG2.117, 72 h, HepG2.117 cells, intracellular HBV DNA by real-time PCR, 3 days of treatment, mean value; read-out: EC50 (μM, mean value)
Method in brief: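 Antiviral effect is expressed through intracellular HBV DNA levels, determined by real-time PCR with a virus-specific probe. These levels were measured after 3 days of treatment with compound dilutions, in HepG2.117 cells induced to replicate HBV.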

in vitro = format: cell-based; conditions: human, HepG2 or HepG2.117 cells, ATPlite, 3-days incubation (not marked with *), mean value
Method in brief: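 Luminescent ATP quantitation served as the viability endpoint following a 3- or 4-day incubation with test compounds.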

| SMILES | EC50 [1] | CC50 at 3 days (in vitro) |
| --- | --- | --- |
| CNC(=O)c1ccc(-n2c(NC(C)C)nc3c(c2=O)C[C@@H](C)N(C(=O)c2nn(C)c4ccccc24)C3)cc1 [Compound C477] | 10.2 µM | > 50 µM |
| CNC(=O)c1ccc(-n2c(NC(C)C)nc3c(c2=O)C[C@@H](C)N(C(=O)c2ccc(F)c(Cl)c2)C3)cc1 [Compound C478] | 1.28 µM | > 50 µM |
| CNC(=O)c1ccc(-n2c(N(C)Cc3cn(C)nn3)nc3c(c2=O)C[C@@H](C)N(C(=O)c2ccc(Cl)c(Cl)c2)C3)cc1 [Compound C479] | 3.81 µM | > 50 µM |
| CNC(=O)c1ccc(-n2c(NC3COC(C)(C)C3)nc3c(c2=O)C[C@@H](C)N(C(=O)c2ccc(Cl)c(Cl)c2)C3)cc1 (some centres unmarked) [Compound C480] | 10.3 µM | > 50 µM |
| CNC(=O)c1ccc(-n2c(NC(C)Cn3cnnc3)nc3c(c2=O)C[C@@H](C)N(C(=O)c2ccc(Cl)c(Cl)c2)C3)cc1 (some centres unmarked) [Compound C481] | > 25 µM | > 50 µM |
| CNC(=O)c1ccc(-n2c(NCC(CO)C3CC3)nc3c(c2=O)C[C@@H](C)N(C(=O)c2ccc(Cl)c(Cl)c2)C3)cc1 (some centres unmarked) [Compound C482] | 8.34 µM | > 50 µM |
| CNC(=O)c1ccc(-n2c(NCc3nnc4n3CCC4)nc3c(c2=O)C[C@@H](C)N(C(=O)c2ccc(Cl)c(Cl)c2)C3)cc1 [Compound C483] | > 12.5 µM | > 25 µM |
| CNC(=O)c1ccc(-n2c(NC(C)c3ncn(C)n3)nc3c(c2=O)C[C@@H](C)N(C(=O)c2ccc(Cl)c(Cl)c2)C3)cc1 (some centres unmarked) [Compound C484] | 3.09 µM | > 50 µM |
| CNC(=O)c1ccc(-n2c(NCc3ccccc3-n3ccnc3)nc3c(c2=O)C[C@@H](C)N(C(=O)c2ccc(Cl)c(Cl)c2)C3)cc1 [Compound C485] | 11.9 µM | 24.9 µM |
| CNC(=O)c1ccc(-n2c(NCc3nc(-c4ccccc4)n[nH]3)nc3c(c2=O)C[C@@H](C)N(C(=O)c2ccc(Cl)c(Cl)c2)C3)cc1 [Compound C486] | 17.3 µM | > 50 µM |
| CNC(=O)c1ccc(-n2c(N3C[C@@H](C#N)[C@H](c4ccccc4)C3)nc3c(c2=O)C[C@@H](C)N(C(=O)c2ccc(Cl)c(Cl)c2)C3)cc1 [Compound C487] | 0.25 µM | > 50 µM |
| CNC(=O)c1ccc(-n2c(NCc3cccc(-c4nccn4C)c3)nc3c(c2=O)C[C@@H](C)N(C(=O)c2ccc(Cl)c(Cl)c2)C3)cc1 [Compound C488] | 7.31 µM | 28.2 µM |
| CNC(=O)c1ccc(-n2c(NC(C)c3cn(C)nn3)nc3c(c2=O)C[C@@H](C)N(C(=O)c2ccc(Cl)c(Cl)c2)C3)cc1 (some centres unmarked) [Compound C489] | > 25 µM | > 50 µM |
| CNC(=O)c1ccc(-n2c(NCc3csc(C4CC4)n3)nc3c(c2=O)C[C@@H](C)N(C(=O)c2ccc(Cl)c(Cl)c2)C3)cc1 [Compound C490] | 0.89 µM | 28.4 µM |
| CNC(=O)c1ccc(-n2c(NC(C)C)nc3c(c2=O)C[C@@H](C)N(C(=O)c2ccc4cncc(Br)c4c2)C3)cc1 [Compound C491] | 15.3 µM | > 50 µM |
| CNC(=O)c1ccc(-n2c(NC(C)C)nc3c(c2=O)C[C@@H](C)N(C(=O)c2cc(C)cc(F)c2)C3)cc1 [Compound C492] | 1.98 µM | > 50 µM |
| CNC(=O)c1ccc(-n2c(NC(C)C)nc3c(c2=O)C[C@@H](C)N(C(=O)c2[nH]nc(C(F)(F)F)c2C)C3)cc1 [Compound C493] | 15.2 µM | > 50 µM |
| CNC(=O)c1ccc(-n2c(NC(C)C)nc3c(c2=O)C[C@@H](C)N(C(=O)c2ccc4c(c2)CNC4=O)C3)cc1 [Compound C494] | 2.64 µM | > 50 µM |
| CNC(=O)c1ccc(-n2c(NC(C)C)nc3c(c2=O)C[C@@H](C)N(C(=O)c2cc(Br)c4nccn4c2)C3)cc1 [Compound C495] | > 25 µM | > 50 µM |

| SMILES | EC50 [1] | CC50 at 3 days (in vitro) |
| --- | --- | --- |
| CNC(=O)c1ccc(-n2c(NC(C)C)nc3c(c2=O)C[C@@H](C)N(C(=O)c2cc(C#N)c[nH]2)C3)cc1 [Compound C496] | > 25 µM | > 50 µM |
| CNC(=O)c1ccc(-n2c(NC(C)C)nc3c(c2=O)C[C@@H](C)N(C(=O)c2cn4ccccc4n2)C3)cc1 [Compound C497] | 11.8 µM | > 50 µM |
| CNC(=O)c1ccc(-n2c(NC(C)C)nc3c(c2=O)C[C@@H](C)N(C(=O)c2cc(F)c(Cl)cc2F)C3)cc1 [Compound C498] | 2.92 µM | > 50 µM |
| CNC(=O)c1ccc(-n2c(NC(C)C)nc3c(c2=O)C[C@@H](C)N(C(=O)c2ccc(F)c(C)c2)C3)cc1 [Compound C499] | 1.53 µM | > 50 µM |
| CNC(=O)c1ccc(-n2c(NC(C)C)nc3c(c2=O)C[C@@H](C)N(C(=O)c2ccc(C(F)F)c(F)c2)C3)cc1 [Compound C500] | 0.59 µM | > 50 µM |
| CNC(=O)c1ccc(-n2c(NC(C)C)nc3c(c2=O)C[C@@H](C)N(C(=O)c2cc(C)c(F)c(C)c2)C3)cc1 [Compound C501] | 0.36 µM | > 50 µM |
| CNC(=O)c1ccc(-n2c(NC(C)C)nc3c(c2=O)C[C@@H](C)N(C(=O)c2cc(F)cc(F)c2)C3)cc1 [Compound C502] | 8.95 µM | > 50 µM |
| CNC(=O)c1ccc(-n2c(NC(C)C)nc3c(c2=O)C[C@@H](C)N(C(=O)c2cc4ccncc4s2)C3)cc1 [Compound C503] | 6.32 µM | > 50 µM |
| CNC(=O)c1ccc(-n2c(NC(C)C)nc3c(c2=O)C[C@@H](C)N(C(=O)c2cccc(Cl)c2OC)C3)cc1 [Compound C504] | 1.01 µM | > 50 µM |
| CNC(=O)c1ccc(-n2c(NC(C)C)nc3c(c2=O)C[C@@H](C)N(C(=O)c2cc4c(F)cccc4[nH]2)C3)cc1 [Compound C505] | 0.02 µM | 25.6 µM |
| CNC(=O)c1ccc(-n2c(NC(C)C)nc3c(c2=O)C[C@@H](C)N(C(=O)c2cc(C)c(C#N)c(C)c2)C3)cc1 [Compound C506] | 0.94 µM | > 50 µM |
| CNC(=O)c1ccc(-n2c(NC(C)C)nc3c(c2=O)C[C@@H](C)N(C(=O)c2ccc(C)cc2)C3)cc1 [Compound C507] | 2.89 µM | > 50 µM |
| CNC(=O)c1ccc(-n2c(NC(C)C)nc3c(c2=O)C[C@@H](C)N(C(=O)c2ccc(C#N)c(Cl)c2)C3)cc1 [Compound C508] | 0.88 µM | > 50 µM |
| CNC(=O)c1ccc(-n2c(NC(C)C)nc3c(c2=O)C[C@@H](C)N(C(=O)c2ccc4[nH]c(=O)n(C)c4c2)C3)cc1 [Compound C509] | > 25 µM | > 50 µM |
| CNC(=O)c1ccc(-n2c(NC(C)C)nc3c(c2=O)C[C@@H](C)N(C(=O)c2ccc4c(c2)[nH]c(=O)n4C)C3)cc1 [Compound C510] | 9.42 µM | > 50 µM |
| CNC(=O)c1ccc(-n2c(NC(C)C)nc3c(c2=O)C[C@@H](C)N(C(=O)c2ccc(Br)cc2F)C3)cc1 [Compound C511] | 2.41 µM | > 50 µM |
| CNC(=O)c1ccc(-n2c(NC(C)C)nc3c(c2=O)C[C@@H](C)N(C(=O)c2ccc(Br)c(F)c2OC)C3)cc1 [Compound C512] | 1.11 µM | > 50 µM |
| CNC(=O)c1ccc(-n2c(NC(C)C)nc3c(c2=O)C[C@@H](C)N(C(=O)c2ccc(Br)cc2OC)C3)cc1 [Compound C513] | 22.1 µM | > 50 µM |
